Experimental data reported in patent US20110112100A1, “Hepatitis C Virus Inhibitors” (priority 2009, published 2011).
Counter-ions that a name gives are not always drawn. Like-named read-outs stand apart in the source and are kept apart here.

What was measured:
[1] = test system: 1a-H77 replicon cells; assay: HCV 1a replicon inhibitory activity (Renilla luciferase); type: cell-based, hepatitis C virus; details: read-out: IC50 value (95% Confidence Intervals) pM Replicon 1A assay
Procedure, shortened: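 Replicon cells in DMEM + 10% FCS incubated 48 hours at 37° C., 5% CO2 with 1-in-3 serial dilutions of compound prepared in DMSO. Replication read as Renilla luciferase luminescence after lysis. EC50 taken from log concentration-response curves.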

[2] = test system: 1b (con1) replicon cells; assay: HCV 1b replicon inhibitory activity (luciferase, Britelite Plus); type: cell-based, hepatitis C virus; details: read-out: IC50 value (95% Confidence Intervals) pM Replicon 1B assay
Procedure, shortened: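 1b (con1) luciferase replicon cells in DMEM + 10% FCS were exposed to 1-in-3 DMSO compound dilutions for 48 h at 37° C, 5% CO2. Luminescence was read 1-15 min after Britelite Plus addition; EC50 came from log concentration-response curves.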

[3] = geometric mean, 95% confidence intervals in parentheses, 48 hours, medium with 10% FCS
[4] = Hepatitis C virus, geometric mean, 95% confidence intervals in parentheses, 48 hours, medium with 10% FCS

Compound	IC50 ([1]; Hepatitis C virus, 48 h)	IC50 ([2]; Hepatitis C virus, 48 h)	other results
COC(=O)N[C@@H](CC(C)C)C(=O)N1CCC[C@H]1c1ncc(-c2ccc3nc(-c4ccc(-c5c[nH]c([C@@H]6CCCN6C(=O)[C@@H](NC(=O)OC)C(C)C)n5)cc4)cnc3c2)[nH]1 [Example 68, Methyl {(2S)-1-[(2S)-2-{5-[2-(4-{2-[(2S)-1-{(2S)-2-[(methoxycarobnyl)amino]-3-methylbutanoyl}pyrrolidin-2-yl]-1H-imidazol-4-yl}phenyl)quinoxalin-6-yl]-1H-imidazol-2-yl}pyrrolidin-1-yl]-4-methyl-1-oxopentan-2-yl}carbamate trifluoroacetic acid salt]			IC50 [1, 3]: 23.2 pM; IC50 [2, 3]: 8.15 pM
COC(=O)N[C@H](C(=O)N1CCC[C@H]1c1nc(-c2ccc(-c3cnc4cc(-c5cnc([C@@H]6CCCN6C(=O)CNC(C)=O)[nH]5)ccc4n3)cc2)c[nH]1)C(C)C [Example 35, Methyl {(2S)-1-[(2S)-2-{4-[4-(6-{2-[(2S)-1-(N-acetylglycyl)pyrrolidin-2-yl]-1H-imidazol-5-yl}quinoxalin-2-yl)phenyl]-1H-imidazol-2-yl}pyrrolidin-1-yl]-3-methyl-1-oxobutan-2-yl}carbamate trifluoroacetic acid salt]	2300 pM	254 pM	
COC(=O)N[C@H](C(=O)N1CCC[C@H]1c1nc(-c2ccc(-c3cnc4cc(-c5cnc([C@@H]6CCCN6C(=O)CNC(=O)c6[nH]nc7ccccc67)[nH]5)ccc4n3)cc2)c[nH]1)C(C)C [Example 44, Methyl {(2S)-1-[(2S)-2-(4-{4-[6-(2-{(2S)-1-[N-(2H-indazol-3-ylcarbonyl)glycyl]pyrrolidin-2-yl}-1H-imidazol-5-yl)quinoxalin-2-yl]phenyl}-1H-imidazol-2-yl)pyrrolidin-1-yl]-3-methyl-1-oxobutan-2-yl} carbamate trifluoroacetic acid salt]			IC50 [1, 3]: 3510 pM; IC50 [2, 3]: 100 pM
COC(=O)N[C@H](C(=O)N1CCC[C@H]1c1nc(-c2ccc(-c3cc4ccc(-c5cnc([C@@H]6CCCN6C(=O)[C@@H](NC(=O)OC)C(C)C)[nH]5)cc4cn3)nc2)c[nH]1)C(C)C [Example 11, Methyl {(2S)-1-[(2S)-2-{4-[6-(7-{2-[(2S)-1-{(2S)-2-[(methoxycarbonyl)amino]-3-methyl-butanoyl}pyrrolidin-2-yl]-1H-imidazol-5-yl}isoquinolin-3-yl)pyridin-3-yl]-1H-imidazol-2-yl}pyrrolidin-1-yl]-3-methyl-1-oxobutan-2-yl}carbamate]			IC50 [1, 4]: 42.1 pM; IC50 [2, 4]: 20.8 pM
COC(=O)N[C@H](C(=O)N1CCC[C@H]1c1ncc(-c2ccc(-c3ccc4nc(-c5cnc([C@@H]6CCCN6C(=O)[C@@H](NC(=O)OC)C(C)C)[nH]5)cnc4c3)cc2)[nH]1)C(C)C [Example 5, Methyl {(2S)-1-[(2S)-2-{5-[4-(2-{2-[(2S)-1-{(2S)-2-[(methoxycarbonyl)amino]-3-methyl-butanoyl}pyrrolidin-2-yl]-1H-imidazol-5-yl}quinoxalin-6-yl)phenyl]-1H-imidazol-2-yl}pyrrolidin-1-yl]-3-methyl-1-oxobutan-2-yl}carbamate]			IC50 [1, 4]: 387 pM; IC50 [2, 4]: 8.12 pM
COC(=O)N[C@H](C(=O)N1CCC[C@H]1c1nc(-c2ccc(-c3cnc4cc(-c5cnc([C@@H]6CCCN6C(=O)[C@@H](COC(C)(C)C)NC(=O)OC)[nH]5)ccc4n3)cc2)c[nH]1)C(C)C [Example 76, Methyl {(2S)-1-[(2S)-2-{4-[4-(6-{2-[(2S)-1-{(2R)-3-tert-butoxy-2-[(methoxycarbonyl)amino]propanoyl}pyrrolidin-2-yl]-1H-imidazol-5-yl]quinoxalin-2-yl)phenyl]-1H-imidazol-2-yl}pyrrolidin-1-yl]-3-methyl-1-oxobutan-2-yl}carbamate trifluoroacetic acid salt]	157 pM	58.8 pM	
COC(=O)N[C@H](C(=O)N1CCC[C@H]1c1nc(-c2ccc(-c3cnc4cc(-c5cnc([C@@H]6CCCN6C(=O)CNC(=O)CN6C(=O)CCc7ccccc76)[nH]5)ccc4n3)cc2)c[nH]1)C(C)C [Example 45, Methyl {(2S)-3-methyl-1-oxo-1-[(2S)-2-{4-[4-(6-[2-[(2S)-1-{N-[(2-oxo-3,4-dihydroquinolin-1(2H)-yl)acetyl]glycyl}pyrrolidin-2-yl]-1H-imidazol-5-yl}quinoxalin-2-yl)phenyl]-1H-imidazol-2-yl}pyrrolidin-1-yl]butan-2-yl}carbamate trifluoroacetic acid salt]	20000 pM	507 pM	
COC(=O)NC(C(=O)N1CCC[C@H]1c1ncc(-c2ccc3nc(-c4ccc(-c5c[nH]c([C@@H]6CCCN6C(=O)[C@@H](NC(=O)OC)C(C)C)n5)cc4)cnc3c2)[nH]1)C1CCCC1 (stereo partly drawn) [Example 66, Methyl {(2S)-1-[(2S)-2-{4-[4-(6-{2-[(2S)-1-{cyclopentyl[(methoxycarbonyl)amino]acetyl}pyrrolidin-2-yl]-1H-imidazol-5-yl}quinoxalin-2-yl)phenyl]-1H-imidazol-2-yl}pyrrolidin-1-yl]-3-methyl-1-oxobutan-2-yl} carbamate trifluoroacetic acid salt]			IC50 [1, 3]: 1720 pM; IC50 [2, 3]: 21.7 pM
COC(=O)N[C@H](C(=O)N1CCC[C@H]1c1nc(-c2ccc(-c3cnc4cc(-c5cnc([C@@H]6CCCN6C(=O)[C@H](NC(=O)OC)C(C)C)[nH]5)ccc4n3)cc2)c[nH]1)C(C)C [Example 61, Methyl {(2S)-1-[(2S)-2-{4-[4-(6-{2-[(2S)-1-{(2R)-2-[(methoxycarbonyl)amino]-3-methylbutanoyl}pyrrolidin-2-yl]-1H-imidazol-5-yl}quinoxalin-2-yl)phenyl]-1H-imidazol-2-yl}pyrrolidin-1-yl]-3-methyl-1-oxobutan-2-yl}carbamate trifluoroacetic acid salt]	6400 pM	83.5 pM	
Methyl {(2S)-1-[(2S)-2-{4-[4-(6-{2-[(2S)- 1-{(2S)-3-tert-butoxy-2-[(methoxy carbonyl)amino]propanoyl}pyrrolidin-2- yl]-1H-imidazol-5-yl}quinoxalin-2-yl) phenyl]-1H-imidazol-2-yl}pyrrolidin-1-yl]- 3-methyl-1-oxobutan-2-yl}carbamate trifluoroacetic acid salt [Example 81]			IC50 [1, 3]: 44 pM; IC50 [2, 3]: 13.7 pM
COC(=O)N[C@H](C(=O)N1CCC[C@H]1c1nc(-c2ccc(-c3cnc4cc(-c5cnc([C@@H]6CCCN6C(=O)CNC(=O)c6ccc7[nH]cnc7c6)[nH]5)ccc4n3)cc2)c[nH]1)C(C)C [Example 43, Methyl {(2S)-1-[(2S)-2-(4-{4-[6-(2-{(2S)-1-[N-(1H-benzimidazol-5-ylcarbonyl)glycyl]pyrrolidin-2-yl}-1H-imidazol-5-yl)quinoxalin-2-yl]phenyl}-1H-imidazol-2-yl)pyrrolidin-1-yl]-3-methyl-1-oxobutan-2-yl}carbamate trifluoroacetic acid salt]	787 pM	388 pM	
COC(=O)N[C@H](C(=O)N1CCC[C@H]1c1nc(-c2ccc(-c3cnc4cc(-c5cnc([C@@H]6CCCN6C(=O)C6(NC(=O)OC)CCC6)[nH]5)ccc4n3)cc2)c[nH]1)C(C)C [Example 50, Methyl {(2S)-1-[(2S)-2-{4-[4-(6-{2-[(2S)-1-({1-[(methoxycarbonyl)amino]cyclobutyl}carbonyl)pyrrolidin-2-yl]-1H-imidazol-5-yl}quinoxalin-2-yl)phenyl]-1H-imidazol-2-yl}pyrrolidin-1-yl]-3-methyl-1-oxobutan-2-yl}carbamate trifluoroacetic acid salt]	356 pM	77.2 pM	
COC(=O)N[C@H](C(=O)N1CCC[C@H]1c1nc(-c2ccc(-c3cnc4cc(-c5cnc([C@@H]6CCCN6C(=O)[C@@H](Cc6ccccc6)NC(=O)OC)[nH]5)ccc4n3)cc2)c[nH]1)C(C)C [Example 62, Methyl {(2R)-1-[(2S)-2-{5-[2-(4-{2-[(2S)-1-{(2S)-2-[(methoxycarbonyl)amino]-3-methylbutanoyl}pyrrolidin-2-yl]-1H-imidazol-4-yl}phenyl)quinoxalin-6-yl]-1H-imidazol-2-yl}pyrrolidin-1-yl]-1-oxo-3-phenylpropan-2-yl}carbamate trifluoroacetic acid salt]	2570 pM	44.1 pM	
COC(=O)N[C@H](C(=O)N1CCC[C@H]1c1nc(-c2ccc(-c3cnc4cc(-c5cnc([C@@H]6CCCN6C(=O)CNC(=O)c6cc(C)on6)[nH]5)ccc4n3)cc2)c[nH]1)C(C)C [Example 42, Methyl {(2S)-3-methyl-1-[(2S)-2-{4-[4-(6-{2-[(2S)-1-{N-[(5-methylisoxazol-3-yl)carbonyl]glycyl}pyrrolidin-2-yl]-1H-imidazol-5-yl}quinoxalin-2-yl)phenyl]-1H-imidazol-2-yl}pyrrolidin-1-yl]-1-oxobutan-2-yl}carbamate trifluoroacetic acid salt]	2870 pM	247 pM	
COC(=O)N[C@H](C(=O)N1CCC[C@H]1c1nc(-c2ccc(-c3cnc4cc(-c5cnc([C@@H]6CCCN6C(=O)C(C)(C)NC(=O)OC)[nH]5)ccc4n3)cc2)c[nH]1)C(C)C [Example 51, Methyl {(2S)-1-[(2S)-2-{4-[4-(6-{2-[(2S)-1-{2-[(methoxycarbonyl)amino]-2-methylpropanoyl}pyrrolidin-2-yl]-1H-imidazol-5-yl}quinoxalin-2-yl)phenyl]-1H-imidazol-2-yl}pyrrolidin-1-yl]-3-methyl-1-oxobutan-2-yl}carbamate trifluoroacetic acid salt]	1850 pM	144 pM	
